From patent US20120220563A1, “Substituted piperidines” (BAYER PHARMA AKTIENGESELLSCHAFT, priority 2009, published 2012)
pIC50: −log10 of the molar value.

System: platelet aggregation in platelet-rich plasma triggered by thrombin receptor agonist (TRAP6, SFLLRN)
Assay: Platelet aggregation in plasma (TRAP6/SFLLRN-triggered, turbidimetry according to Born)
Type: cell-based
Settings: Homo sapiens, 10 min, platelet-rich plasma of healthy volunteers, 10 min at 37° C. with test substance, concentration which inhibits aggregation by 50%
Protocol: To determine the platelet aggregation, blood from healthy volunteers of both genders, who had not received any platelet aggregation-influencing medication for the last ten days, is used. The blood is taken up into monovettes (Sarstedt, Nümbrecht, Germany) which contain, as anticoagulant, sodium citrate 3.8% (1 part of citrate+9 parts of blood). To obtain platelet-rich plasma, the citrated whole blood is centrifuged at 140 g for 20 min
For the aggregation measurements, aliquots of the platelet-rich plasma with increasing concentrations of test substance are incubated at 37° C. for 10 min. Subsequently, aggregation is triggered by addition of a thrombin receptor agonist (TRAP6, SFLLRN) in an aggregometer and determined at 37° C. by means of the turbidimetry method according to Born (Born, G. V. R., Cross M. J., The Aggregation of Blood Platelets; J. Physiol. 1963, 168, 178-195). The SFLLRN concentration leading to maximum aggregation is, if appropriate, determined individually for each donor.
To calculate the inhibitory effect, the maximum increase of light transmission (amplitude of the aggregation curve in %) is determined within 5 minutes after addition of the agonist in the presence and absence of test substance, and the inhibition is calculated. The inhibition curves are used to calculate the concentration which inhibits aggregation by 50%.

Row | SMILES | pIC50
1 | CCOc1noc(C2CC(c3ccc(CC)c(F)c3)CN(C(=O)N3CCS(=O)(=O)CC3)C2)n1 (racemic) [Example 101, (1,1-Dioxidothiomorpholin-4-yl)[3-(3-ethoxy-1,2,4-oxadiazol-5-yl)-5-(4-ethyl-3-fluorophenyl)-piperidin-1-yl]methanone] | 9.52
2 | CCN(CC)c1noc(C2CC(c3ccc(C(F)(F)F)cc3)CN(C(=O)N3CCOCC3)C2)n1 (single isomer, unassigned) [Example 6, {3-[3-(Diethylamino)-1,2,4-oxadiazol-5-yl]-5-[4-(trifluoromethyl)phenyl]piperidin-1-yl}-(morpholin-4-yl)methanone] | 9.17
3 | CCc1ccc(C2CC(c3nc(OCCOC)no3)CN(C(=O)N3CCS(=O)(=O)CC3)C2)cc1 (single isomer, unassigned) [Example 63, (1,1-Dioxidothiomorpholin-4-yl){3-(4-ethylphenyl)-5-[3-(2-methoxyethoxy)-1,2,4-oxadiazol-5-yl]-piperidin-1-yl}-methanone] | 9.62
4 | CCOc1noc(C2CC(c3ccc(CC(F)(F)F)cc3)CN(C(=O)N3CC[S+]([O-])CC3)C2)n1 (single isomer, unassigned) [Example 66, {3-(3-Ethoxy-1,2,4-oxadiazol-5-yl)-5-[4-(2,2,2-trifluoroethyl)phenyl]piperidin-1-yl}(1-oxidothio-morpholin-4-yl)methanone] | 9.27
5 | CCOc1noc(C2CC(c3ccc(CC(F)(F)F)cc3)CN(C(=O)N3CCS(=O)(=O)CC3)C2)n1 (single isomer, unassigned) [Example 69, (1,1-Dioxidothiomorpholin-4-yl) {3-(3-ethoxy-1,2,4-oxadiazol-5-yl)-5-[4-(2,2,2-trifluoroethyl)-phenyl]piperidin-1-yl}methanone] | 9.60
